According to PubChem BioAssay (NCI):
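All cell lines were grown in 96-well plates and treated with compound for 48 hours. GI50: concentration for 50% inhibition of growth. TGI is the concentration that stops growth completely.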

What was measured:
Assay in all cases: NCI tumour cell line growth inhibition, 48 h
IGROV1 ovarian = system: IGROV1 ovarian
T-47D breast = system: T-47D breast
LOX IMVI melanoma = system: LOX IMVI melanoma
SK-MEL-5 melanoma = system: SK-MEL-5 melanoma
SK-MEL-28 melanoma = system: SK-MEL-28 melanoma
HCT-15 colon = system: HCT-15 colon
RXF 393 renal = system: RXF 393 renal
HCC-2998 colon = system: HCC-2998 colon
DU-145 prostate = system: DU-145 prostate
SK-MEL-2 melanoma = system: SK-MEL-2 melanoma
HT29 colon = system: HT29 colon
OVCAR-4 ovarian = system: OVCAR-4 ovarian
MCF7 breast = system: MCF7 breast
UACC-257 melanoma = system: UACC-257 melanoma
M14 melanoma = system: M14 melanoma
NCI-H23 lung = system: NCI-H23 lung
SF-539 CNS = system: SF-539 CNS
OVCAR-3 ovarian = system: OVCAR-3 ovarian
EKVX NSCLC = system: EKVX NSCLC
SNB-19 CNS = system: SNB-19 CNS
HCT-116 colon = system: HCT-116 colon
PC-3 prostate = system: PC-3 prostate
HOP-62 NSCLC = system: HOP-62 NSCLC
HOP-92 NSCLC = system: HOP-92 NSCLC
SF-268 CNS = system: SF-268 CNS
OVCAR-5 ovarian = system: OVCAR-5 ovarian
UO-31 renal = system: UO-31 renal
BT-549 breast = system: BT-549 breast
U251 CNS = system: U251 CNS
MALME-3M melanoma = system: MALME-3M melanoma
KM12 colon = system: KM12 colon
K-562 leukemia = system: K-562 leukemia
SK-OV-3 ovarian = system: SK-OV-3 ovarian
NCI/ADR-RES ovarian = system: NCI/ADR-RES ovarian
786-0 renal = system: 786-0 renal
MDA-MB-231 breast = system: MDA-MB-231 breast
ACHN renal = system: ACHN renal
UACC-62 melanoma = system: UACC-62 melanoma
OVCAR-8 ovarian = system: OVCAR-8 ovarian
MDA-MB-435 = system: MDA-MB-435
SF-295 CNS = system: SF-295 CNS
SN12C renal = system: SN12C renal
RPMI-8226 leukemia = system: RPMI-8226 leukemia
MDA-MB-468 breast = system: MDA-MB-468 breast
CCRF-CEM leukemia = system: CCRF-CEM leukemia
HS 578T breast = system: HS 578T breast
TK-10 renal = system: TK-10 renal
CAKI-1 renal = system: CAKI-1 renal
A549 NSCLC = system: A549 NSCLC
NCI-H226 lung = system: NCI-H226 lung
A498 renal = system: A498 renal
SNB-75 CNS = system: SNB-75 CNS
NCI-H522 lung = system: NCI-H522 lung
COLO 205 colon = system: COLO 205 colon
HL-60(TB) leukemia = system: HL-60(TB) leukemia

For `Cn1cc(-c2cc(N)n3nc(-c4c[nH]c5ccccc45)cc3n2)c2cc(Br)cnc21`, the GI50 (IGROV1 ovarian) was 3.29 µM, the TGI (IGROV1 ovarian) was 13.2 µM and the GI50 (T-47D breast) was 3.22 µM. The TGI (T-47D breast) was 14.3 µM, the GI50 (LOX IMVI melanoma) was 1.64 µM and the TGI (LOX IMVI melanoma) was 2.99 µM. It also gave a GI50 (SK-MEL-5 melanoma) of 3.46 µM, a TGI (SK-MEL-5 melanoma) of 13.9 µM and a GI50 (SK-MEL-28 melanoma) of 2.18 µM. It also gave a TGI (SK-MEL-28 melanoma) of 5.6 µM, a GI50 (HCT-15 colon) of 1.7 µM and a TGI (HCT-15 colon) of 3.51 µM. For the same compound, the GI50 (RXF 393 renal) was 2.54 µM, the TGI (RXF 393 renal) was 6.15 µM and the GI50 (HCC-2998 colon) was 1.65 µM. It also gave a TGI (HCC-2998 colon) of 3.08 µM, a GI50 (DU-145 prostate) of 3.58 µM and a TGI (DU-145 prostate) of 12.2 µM. For the same compound, the GI50 (SK-MEL-2 melanoma) was 1.99 µM, the TGI (SK-MEL-2 melanoma) was 4.48 µM and the GI50 (HT29 colon) was 1.8 µM. The TGI (HT29 colon) was 3.61 µM, the GI50 (OVCAR-4 ovarian) was 2.7 µM and the TGI (OVCAR-4 ovarian) was 9.4 µM. It also gave a GI50 (MCF7 breast) of 1.95 µM, a TGI (MCF7 breast) of 4.58 µM and a GI50 (UACC-257 melanoma) of 3.5 µM. The TGI (UACC-257 melanoma) was 18.4 µM, the GI50 (M14 melanoma) was 1.91 µM and the TGI (M14 melanoma) was 3.87 µM. For the same compound, the GI50 (NCI-H23 lung) was 1.87 µM, the TGI (NCI-H23 lung) was 4.16 µM and the GI50 (SF-539 CNS) was 1.67 µM. The TGI (SF-539 CNS) was 3.11 µM, the GI50 (OVCAR-3 ovarian) was 1.74 µM and the TGI (OVCAR-3 ovarian) was 3.37 µM. It also gave a GI50 (EKVX NSCLC) of 3.14 µM, a TGI (EKVX NSCLC) of 13.7 µM and a GI50 (SNB-19 CNS) of 2.76 µM. It also gave a TGI (SNB-19 CNS) of 8.76 µM, a GI50 (HCT-116 colon) of 1.82 µM and a TGI (HCT-116 colon) of 3.39 µM. For the same compound, the GI50 (PC-3 prostate) was 2.41 µM, the TGI (PC-3 prostate) was 7.91 µM and the GI50 (HOP-62 NSCLC) was 2.12 µM. It also gave a TGI (HOP-62 NSCLC) of 5.44 µM, a GI50 (HOP-92 NSCLC) of 1.65 µM and a TGI (HOP-92 NSCLC) of 3.44 µM. The GI50 (SF-268 CNS) was 2.42 µM, the TGI (SF-268 CNS) was 7.66 µM and the GI50 (OVCAR-5 ovarian) was 1.82 µM. It also gave a TGI (OVCAR-5 ovarian) of 4.94 µM, a GI50 (UO-31 renal) of 2.48 µM and a TGI (UO-31 renal) of 10.6 µM. It also gave a GI50 (BT-549 breast) of 4.1 µM, a TGI (BT-549 breast) of 18 µM and a GI50 (U251 CNS) of 2.02 µM. The TGI (U251 CNS) was 4.53 µM, the GI50 (MALME-3M melanoma) was 2.14 µM and the TGI (MALME-3M melanoma) was 4.52 µM. It also gave a GI50 (KM12 colon) of 1.79 µM, a TGI (KM12 colon) of 3.98 µM and a GI50 (K-562 leukemia) of 2.88 µM. For the same compound, the TGI (K-562 leukemia) was greater than 100 µM, the GI50 (SK-OV-3 ovarian) was 5.91 µM and the TGI (SK-OV-3 ovarian) was 34.8 µM. The GI50 (NCI/ADR-RES ovarian) was 2.21 µM, the TGI (NCI/ADR-RES ovarian) was 5.16 µM and the GI50 (786-0 renal) was 1.81 µM. The TGI (786-0 renal) was 3.45 µM, the GI50 (MDA-MB-231 breast) was 1.79 µM and the TGI (MDA-MB-231 breast) was 3.91 µM. It also gave a GI50 (ACHN renal) of 2.17 µM, a TGI (ACHN renal) of 6.21 µM and a GI50 (UACC-62 melanoma) of 1.66 µM. The TGI (UACC-62 melanoma) was 3.28 µM, the GI50 (OVCAR-8 ovarian) was 3.22 µM and the TGI (OVCAR-8 ovarian) was 15.2 µM. It also gave a GI50 (MDA-MB-435) of 1.93 µM, a TGI (MDA-MB-435) of 3.96 µM and a GI50 (SF-295 CNS) of 1.81 µM. For the same compound, the TGI (SF-295 CNS) was 3.87 µM, the GI50 (SN12C renal) was 5.02 µM and the TGI (SN12C renal) was 21.1 µM. It also gave a GI50 (RPMI-8226 leukemia) of 3.07 µM, a TGI (RPMI-8226 leukemia) of 10.5 µM and a GI50 (MDA-MB-468 breast) of 2.23 µM. For the same compound, the TGI (MDA-MB-468 breast) was 5.42 µM, the GI50 (CCRF-CEM leukemia) was 3.71 µM and the TGI (CCRF-CEM leukemia) was greater than 100 µM. It also gave a GI50 (HS 578T breast) of 2.61 µM, a TGI (HS 578T breast) of 14.9 µM and a GI50 (TK-10 renal) of 2.69 µM. For the same compound, the TGI (TK-10 renal) was 6.3 µM, the GI50 (CAKI-1 renal) was 1.69 µM and the TGI (CAKI-1 renal) was 3.87 µM. For the same compound, the GI50 (A549 NSCLC) was 2.78 µM, the TGI (A549 NSCLC) was 11.1 µM and the GI50 (NCI-H226 lung) was 3.29 µM. For the same compound, the TGI (NCI-H226 lung) was 16.3 µM, the GI50 (A498 renal) was 4.9 µM and the TGI (A498 renal) was 19.1 µM. The GI50 (SNB-75 CNS) was 1.7 µM, the TGI (SNB-75 CNS) was 17.1 µM and the GI50 (NCI-H522 lung) was 1.84 µM. It also gave a TGI (NCI-H522 lung) of 3.67 µM, a GI50 (COLO 205 colon) of 1.96 µM and a TGI (COLO 205 colon) of 3.59 µM. It also gave a GI50 (HL-60(TB) leukemia) of 2.01 µM and a TGI (HL-60(TB) leukemia) of 4.67 µM.
